“Also recorded” adds a separate entry of the source.
Columns and labels:
nNOS = assay: NOS enzyme activity assay (Eurofins), nNOS; assay type: biochemical; conditions: C1: 1 nM and 1 μM; 30 min reaction
Experimental: In mammalians NO is produced by the three isoforms of NOS: iNOS, eNOS, and nNOS. To evaluate the direct influence of cl on the different isoforms of NOS, an enzyme activity assay was conducted by Eurofins. C1 was mixed with the enzyme buffer, which included co-factors and substrates and by adding the enzyme the reaction was initiated. After 30 min the reaction was stopped, and NO concentration was measured. The results are normalised to positive control performed without any additional compounds and are presented as percentage in inhibition. […] To test the compounds effect on iNOS a concentration range from […] 5 μM were applied ([…], 1, 10, 100 nM, 1, and 5 μM), and for testing eNOS and nNOS 1 nM and 1 μM were applied.

Microglial cells = assay: Microchemotaxis assay (Boyden chamber): chemotaxis and motility; assay type: cell-based, mouse
Experimental: Microchemotaxis assay. The effect of the compound on directed migration and general motility was tested using a 48-well microchemotaxis Boyden chamber (Neuroprobe, Gaithersburg, USA). Upper and lower wells were separated by polycarbonate filter (8 μm pore size; Poretics). Microglial cells (2-4×10^4 cells) in 50 μl plain medium were added to the upper compartment. In addition, 2.5 μM of compound in DMSO, 125×10-5 v/v DMSO respectively, and/or 100 μM ATP were added to the upper and/or lower chamber, as shown in FIG. 3A. Plain medium was used as a control. The chamber was incubated at 37° C. and 5% CO2 for 6 h. Cells remaining on the upper surface of the membrane were removed by wiping, and cells in the lower compartment were fixed in methanol for 10 min and subjected to Diff-Quik stain (Medion Grifols Diagnostics AG, Dudingen, Switzerland). The rate of microglial migration was calculated by counting cells in four random fields of each well using a 20×bright-field objective. All data were normalised to ATP induced chemotaxis.

[1] = system: bone marrow derived macrophages; assay: AlamarBlue assay (metabolic activity) in macrophages; assay type: cell-based, mouse; conditions: for cell (metabolic) activity, % of positive control: 1 μg/mL LPS 48 hours
Experimental: Primary cultured macrophages. Bone marrow macrophages were isolated from C57BL/6 adult mice ([…]-56) as previously described (Marim et al., 2010). In summary, mice were killed by cervical dislocation and the femurs were removed by cutting through the tibia near the pelvic bone and below the knee. Any muscle connected to the bone was carefully removed. Ice cold sterile PBS was slowly flushed through the bone and the contents were collected in a sterile 15 mL polypropylene tube on ice. After centrifugation for 10 min at 200 g at 4° C., red blood cells were lysed by adding 3-10 mL ammonium chloride solution. After a 3-5 min recovery period, the suspension was centrifuged for 10 min at 200 g at 4° C. and the supernatant was removed. Cells were plated in a 10 cm dish with plain medium containing 10 ng/mL M-CSF and cultured for 7 days to allow differentiation. 50 000 cells were plated with 200 μL medium per well in a 96 well plate. AlamarBlue assay. Cells were seeded according to the protocols described above, after compounds and stimuli were added, the cells were washed once with HBSS (37° C.) and 100 μl of a 1:10 AlamarBlue (Thermo Fisher Scientific) dilution in plain medium was added. The conversion of resazurin to resorufin was measured by absorbance (absorbance wavelength of 570 nm and a reference wavelength of 600 nm) after 3 hours.

iNOS mRNA = assay: Quantitative PCR of iNOS mRNA in microglia; assay type: cell-based, mouse; conditions: 2.5 μM C1
Experimental: Quantitative PCR. The same stimulation protocol as for the Flow cytometry-based phagocytosis assay was applied. Cells were seeded overnight, treated with 2.5 μM C1 in DMSO, 125×10^−5 v/v DMSO respectively, or plain medium only for 1 hour, followed by an additional stimulation with 1 μg/ml LPS for 24 hours. Total RNA was isolated using the RNeasy Plus Mini Kit (Qiagen, Hilden, Germany). On-column DNase 1 (Qiagen) digestion was performed and total RNA was eluted in RNase-free water. RNA yield was measured using a Nanodrop 1000 (Thermo Fisher Scientific) spectrophotometer and quality was assessed using an Agilent 2100 Bioanalyzer (Agilent, Santa Clara, USA). Samples were stored at −80° C. until further use. First-strand cDNA synthesis was done with the SuperScript II reverse transcriptase (Thermo Fisher Scientific) using oligo-dT primers12-18 (Invitrogen) according to the manufacturer's instructions. Quantitative real-time PCR (qRT PCR) reactions were performed in a 7500 Fast Real-Time thermocycler (Thermo Fisher Scientific) using the SYBR Select Master Mix (Thermo Fisher Scientific) according to the manufacturer's instructions. cDNA input ranged between 1 and 5 ng/μl of total RNA transcribed into cDNA. The expression results were normalized to the expression of PActin of the same sample.

COc1ccc(NC(=O)C(NC(=O)C2CCCN2C(=O)OCc2ccccc2)c2ccc(OC)cc2)cc1 (stereo not shown) [C1]
enzymatic activity of nNOS (nNOS): does not interfere | ATP induced motility (Microglial cells; 2.5 μM C1, 100 μM ATP): neither changed; also recorded: not altered | microglial motility (Microglial cells; 2.5 μM C1 on both sides of the chamber): reduced in the presence of C1 significantly compared to plain medium (p=0.0018) but not to DMSO; also recorded: did not significantly affect motility compared to the DMSO control, however it did, when compared to the plain medium control | chemotaxis (cells migrating towards C1) (Microglial cells; gradient of 2.5 μM C1, 6 h): increased chemotaxis significantly; also recorded: significantly higher | cell (metabolic) activity, % of positive control ([1]; 0.025 μM C1): 78.47±31.61% | metabolic activity of PolyIC stimulated macrophages ([1]; 0.025 μM C1, 100 μg/mL PolyIC 24 hours): reduction of metabolic activity; also recorded: deceased significantly | cell (metabolic) activity, % of positive control ([1]; 0.25 μM C1): 69.31±36.50% | metabolic activity of IFNγ stimulated macrophages ([1]; 0.25 μM and 2.5 μM C1, 100 ng/mL IFNγ 48 hours): significant decrease in metabolic activity; also recorded: decreased the metabolic of IFNγ (100 ng/ml) significantly compared to plain medium | cell (metabolic) activity, % of positive control ([1]; 2.5 μM C1): 66.48±31.17% | metabolic activity of macrophages stimulated with LPS ([1]; all tested concentrations of C1): decreased the metabolic activity | metabolic activity of PolyIC stimulated macrophages ([1]; higher concentrations of C1 (0.25, 2.5 μM)): did not show a significant difference | iNOS mRNA level, basal conditions (iNOS mRNA): no significant effect; also recorded: did not change | iNOS mRNA level after LPS stimulation (iNOS mRNA; 1 μg/ml LPS 24 hours): did not change mRNA significantly

Source: patent US20240025849A1 (MAX DELBRÜCK-CENTRUM FÜR MOLEKULARE MEDIZIN IN DER …, priority 2020, published 2024)
